This note sets out measurements from patent publication US9139523B2, “5-HT2B receptor antagonists” (Janssen Pharmaceutica, NV, priority 2010, dated 2015).

Each structure is given as a SMILES string. Like-named read-outs stand apart in the source and are kept apart here.

What all share (assay type): in vivo
Series [1] can be described thus: Monocrotaline-induced pulmonary arterial hypertension in the rat. Conditions: male, Sprague Dawley, in vivo, po, rat, 2 hours post-dosing at day 21, read-out: mean plasma concentration. The procedure: (§1) Compound (−)-17 was tested in monocrotaline-induced pulmonary arterial hypertension in the rat (see e.g., Stenmark et al, 2009, Am J Physiol Lung Cell Mol Physiol 297, L1013-L1032). Measurements included: mean arterial blood pressure and right ventricular pressure in vivo, ratio of right ventricular weight to left ventricular weight plus septum as an index of right ventricular hypertrophy, pulmonary artery acceleration time, and histological assessement of muscularization of pulmonary arteries.
(§2) Monocrotaline was dissolved in 1 N HCl and then into distilled water, and pH was adjusted to 7.4 using NaOH. A single dose of 60 mg/kg monocrotaline was administered subcutaneously on day 0 to three groups of male Sprague Dawley rats. The test article Compound (−)-17 was dissolved in 20% hydroxypropyl-beta-cyclodextrin with NaOH, HCl and mannitol in pyrogen-free water and administered orally by gavage (10 ml/kg) once daily from day 1 for 21 days at 10 mg/kg and 50 mg/kg. […] Corresponding volumes of 20% hydroxypropyl-beta-cyclodextrin vehicle were administered orally according to the same protocol in a third group of animals.

In series [2] the test system is monocrotaline-induced pulmonary arterial hypertension. The series is described as above. The settings on record: for MAP / PAAT / RV/(LV + S) / RVP: Day 21, mean ± SD. The procedure:
as §1, §2

Series [3] is described as follows: Pharmacokinetic evaluation in the rat. Conditions: male Sprague Dawley rat. The procedure:
For intravenous (i.v.) administration, Compound (−)-17 was dissolved in saline containing 20% (w/v) hydroxy-propyl-beta-cyclodextrin (HPbCD) at a concentration of 1 mg/mL and administered (2.5 mL/kg) to male Sprague Dawley rats (n=1) as a bolus via a saphenous vein at a dose level of 2.5 mg/kg. For oral (p.o.) administration, Compound (−)-17 was dissolved in water containing 20% (w/v) HPbCD at a concentration of 1 mg/mL and administered (10 mL/kg) to male Sprague Dawley rats (n=3) via gavage at a dose level of 10 mg/kg. Blood samples were collected via a tail vein at serial time points up to 24 h after dosing. Plasma was obtained by centrifugation and stored at −20° C. prior to analysis. Analysis was performed using liquid chromatography (LC) with tandem mass spectrometric detection (MS/MS) in positive ion mode. Compound (−)-17 was eluted from a reversed phase column with a gradient of acetonitrile and water containing 0.1% (v/v) formic acid. At the time of analysis plasma samples (50 uL) were thawed and […] with at least three volumes of acetonitrile and centrifuged. Aliquots of the supernatant were injected onto a reversed phase UPLC column and analysed via electrospray Mass Spectrometry. Calibration standards and quality controls, analysed before and after the samples, were prepared in rat plasma at the same time as the study samples. The accuracy (intra branch accuracy from independent QC samples) was between 85% and 115% of the nominal value over the entire concentration range. Non-compartmental pharmacokinetic analysis of the plasma concentration-time curves was performed using WinNonLin to provide estimates of the plasma clearance (CLp), volume of distribution at steady-state (Vss), terminal phase elimination half-life (t½) and oral bioavailability (F), the results are summarised in Table 8.

[4] abbreviates: 10 mg/kg p.o. once daily 21 days.
Setting [5] is: 50 mg/kg p.o. once daily 21 days.
The mark [6] stands for this setting: rat, 10 mg and 50 mg p.o. once daily, three weeks.

In the case of `COc1cc(N)c(Cl)cc1C(=O)NC1CCN(CCCOc2ccc(F)cc2)CC1(F)F` (single isomer, unassigned) [Compound (−)-17, 4-amino-5-chloro-N-{3,3-difluoro-1-[3-(4-fluorophenoxy)-propyl]-piperidin-4-yl}-2-methoxybenzamide], the concentration at 2 h in series [1] (10 mg/kg, 10 mg p.o. once daily) was approximately 80 ng/mL. Further, the concentration at 2 h in series [1] (50 mg/kg, 50 mg p.o. once daily) stood at 1000 ng/mL. Moreover, in series [2] (setting [4]), the MAP was 93.7 ± 14.11 mmHg, the PAAT worked out at 15.91 ± 2.76 ms, the “RV/(LV + S)” value stood at 0.46 ± 0.08 and the RVP came to 43.18 ± 7.38 mmHg. Further, in series [2] (setting [5]), the MAP stood at 97.58 ± 9.74 mmHg, the PAAT was 15.42 ± 2.62 ms, the “RV/(LV + S)” value was found to be 0.41 ± 0.08 and the RVP worked out at 42.85 ± 11.55 mmHg. The “toxicity of three-week treatment” value in series [2] (rat, 10 mg and 50 mg p.o. once daily) is listed as “non-toxic”. Besides, in series [2] (setting [6]), the “effect on mean arterial blood pressure (MAP)” value is on record as “no effect”, the “effect on pulmonary artery acceleration time (PAAT)” value is listed as “increased”, the “effect on right ventricular hypertrophy RV/(LV+S)” value is “reduced” and the “effect on right ventricular pressure (RVP)” value was “reduced”. In series [2] (rat, 10 mg p.o. three weeks (P<0.005)), the “monocrotaline-induced thickening of wall of small pulmonary arteries” value is listed as “reduced”. For the same compound, the “monocrotaline-induced thickening of wall of small pulmonary arteries” value in series [2] (rat, 50 mg/kg p.o. three weeks (P=0.0539)) is on record as “reduced”. This compound also displayed a F in series [3] (p.o. 10 mg/kg vs i.v. 2.5 mg/kg) of 19%. The half-life in series [3] (plasma, intravenous, 2.5 mg/kg, read-out: t½ (converted)) was 66 min. Moreover, in series [3] (plasma, iv, i.v. 2.5 mg/kg (n=1)), the clearance amounted to 46 mL/min/kg. In addition, the Vd in series [3] (plasma, iv, i.v. 2.5 mg/kg (n=1), read-out: Vss) came to 3.1 L/kg. In addition, in series [3] (plasma, po, p.o. 10 mg/kg), the AUC(0-t) is 686 ± 254 ng·h/mL, the Cmax stood at 119 ± 37 ng/mL and the Tmax was 30 min.
